The text below walks through data of publication PMC9865903, “Improving the Antimycobacterial Drug Clofazimine through Formation of Organic Salts by Combination with Fluoroquinolones” (International Journal of Molecular Sciences, 2023).

Data set [1] can be described thus: Simultaneous thermal analysis (STA: thermogravimetry with DSC). It counts as physicochemical. To be noted: heating from room temperature to 500 °C at 5 °C/min, value in parentheses after melting point. The source says: Considering that thermal stability is an important issue for any API or derived formulation, both API-OSs were next tested by simultaneous thermal analysis (STA) which combines thermogravimetry with differential scanning calorimetry. Thermograms were obtained for the API-OSs and their parent fluoroquinolones (Figure 2), providing their respective melting points and decomposition temperatures. As shown in both Figure 2 and Table 1, the two new API-OSs have melting points lower than those of their respective parent APIs, as expected, but in all cases well above 100 °C, which is generally acknowledged as the threshold temperature separating common ILs from other types of GUMBOS. […] Therefore, the thermostability of this parent antimycobacterial drug is improved when it is forming an ionic pair with the selected fluoroquinolones.
The thermal stability of the compounds was evaluated using a Hitachi STA7200RV instrument (Scancsi, Vila Nova de Gaia, Portugal), following the manufacturer’s instructions. The compounds were subjected to heating from room temperature to 500 °C at a speed of 5 °C/min, obtaining the thermograms provided in Figure 2.

A further data set in a line: physchem. The settings on record: organic solvent or mixture. The source says: DMSO has been previously established as an adequate solvent for studies focused on Clf, including susceptibility testing on Mycobacteria.
The next data set concerns M. avium 2447 SmT. As to the kind of experiment: Antimycobacterial activity in axenic culture, broth microdilution with resazurin. To be noted: Mycobacterium avium, 168 h, 7 days at 37 °C, 4PL interpolation, parentheses = 95% confidence interval. It counts as cell-based. Here is the method: The susceptibility of M. avium to the API-OSs and their parent drugs was first assessed in axenic culture to determine the IC50 of each test compound. To this end, the bacteria were incubated with increasing concentrations of the compounds for 7 days at 37 °C and their viability was assessed by the resazurin assay.
Mycobacterium avium 2447 smooth transparent (SmT) strain (kindly provided by Dr. F. Portaels, Institute of Tropical Medicine, Antwerp, Belgium) was grown to the mid-log phase in Middlebrook 7H9 medium (BD Difco^TM, Fisher Scientific, Porto Salvo, Portugal) containing 0.2% of glycerol (VWR International, Carnaxide, Portugal) and 10% of Albumin-Dextrose-Catalase (ADC, Merck KGaA, Darmstadt, Germany) supplement at 37 °C, as described previously.
The antimicrobial activity of the different compounds was assessed by broth microdilution, following the Clinical and Laboratory Standards Institute (CLSI) guidelines and as described previously, using stock solutions of the compounds in DMSO, due to the negligible solubility of Clf in water. Briefly, M. avium was grown in Middlebrook 7H9 medium to the exponential phase and 1 to 5 × 10^5 CFU/mL of bacteria was seeded in 96-well plates with increasing concentrations of the compounds. […] After 6 days of incubation, bacterial viability was assessed by resazurin reduction. Then, 10% (v/v) of resazurin (Sigma-Aldrich, St. Louis, MO, USA) at 2.5 mM in phosphate-buffered saline (PBS, Sigma-Aldrich, St. Louis, MO, USA) was added to each well, and after 24 h of incubation at 37 °C, the fluorescence of resorufin, resulting from the conversion of resazurin by metabolically active cells, was measured at λex = 530 nm and λem = 590 nm in a Synergy^TM Mx microplate reader from BioTek (Agilent Technologies Inc., Santa Clara, CA, USA) using the Gen5 software also from BioTek. The results are expressed as the percentage of the fluorescence obtained in experimental wells relative to the fluorescence obtained in nontreated wells.
The viability of both mycobacteria and host macrophages was determined by resazurin reduction as detailed above. […]
For orientation: Dilution methods test growth across graded concentrations, often in twofold steps.

A short description of data set [2]: Toxicity to infected host macrophages, resazurin reduction. It counts as cell-based, murine (C57BL/6 mice). The settings on record: male, C57BL/6, mouse; BMM infected with M. avium 2447 SmT, 5 days at 37 °C and 7% CO2, resazurin; 4PL interpolation; parentheses = 95% confidence interval; read-out: LC50. The protocol:
Considering that, after invading its mammalian host, M. avium replicates mainly inside macrophages, the toxicity of test compounds to infected murine bone marrow-derived macrophages (BMM) was also assessed. This was carried out by treating BMM infected with M. avium 2447 SmT with increasing concentrations of the test compounds for 5 days at 37 °C and 7% CO2. Macrophage viability was assessed through a resazurin reduction assay. As shown in Table 1 and Figure 4, though being more toxic to mammalian cells than their parent fluoroquinolones, the Clf-derived OSs seem less toxic to BMM than Clf itself. We are aware that the confidence intervals for LD50 values shown in Table 1 for Clf and its derived OSs have some degree of overlap which, alongside the large standard deviations depicted on the macrophage viability curves shown in Figure 4, are not statistically significant different.
Macrophages were derived from the bone marrow of male C57BL/6 mice bred at the i3S animal facility and infected with M. avium 2447 SmT as described previously. Immediately after infection, BMM were treated with different concentrations of each compound. Each condition was tested in triplicate. The intracellular growth of M. avium 2447 SmT was evaluated 5 days after infection, by colony-forming units (CFUs) assay, plating the bacteria in Middlebrook 7H10 agar (BD DifcoTM, Fisher Scientific, Porto Salvo, Portugal) supplemented with 10% Oleic Acid-Albumin-Dextrose-Catalase (OADC; Merck KGaA, Darmstadt, Germany) for at least 7 days at 37 °C. The viability of macrophages was determined by resazurin reduction as detailed above for mycobacteria.
The viability of both mycobacteria and host macrophages was determined by resazurin reduction as detailed above. IC50 (concentration that inhibits 50% of mycobacterial growth after 7 days of incubation) and LD50 (concentration that inhibits 50% of macrophage viability) values were interpolated by fitting the experimental data through a 4PL nonlinear sigmoidal curve using the GraphPad Prism software version 9 (GraphPad Software Inc., La Jolla, CA, USA). […]
(In general: Alamar Blue is a resazurin reagent that responds to reducing activity.)

Data set [3] can be described thus: Net charge at physiological pH. The settings on record: at physiological pH 7.4. The format is physicochemical. Here is the method:
Table 1 Physico-chemical properties and in vitro effects of the API-OSs and their parent drugs. The compounds were tested against both axenic cultures of M. avium 2447 SmT (IC50) and mammalian host cells (bone marrow-derived macrophages, BMM, LC50) infected with M. avium 2447 SmT. ^1. | column: Net Charge ^2

On the set-up of data set [4]: method as in PMID 7617530, PMID 35300192. The settings on record: due to poor solubility in aqueous/polar media; cited from earlier work.
The conditions of data set [5]: in vivo, po; cited from earlier work.
The conditions of data set [6]: cited from earlier work.

SMILES strings stand for the structures. “And” between values parts separate entries of the source, which are not always exact repeats. Equal values may be shown once. Where only a bound is given, the exact number is not on record here.

Turning to `CC(C)/N=c1\cc2n(-c3ccc(Cl)cc3)c3ccccc3nc-2cc1Nc1ccc(Cl)cc1` [Clf, clofazimine], the “Decomposition Temperature” value in data set [1] was 221.9 (258.0) °C. Moreover, the solubility in the data set “physchem” is 4800 µg/mL and 10200 µM. For the same compound, the IC50 in the data set on M. avium 2447 SmT turned out to be 0.33 µM. Further, the CC50 at 5 days in data set [2] was 4.1 µM. Also, the “Net Charge” value in data set [3] is reported as “+1”. Besides, in data set [4], the “Biopharmaceutics Classification System class” value is “class II”. Moreover, the “absorption rates in humans” value in data set [5] was 45 to 62%. Moreover, the solubility in water result in data set [6] was “virtually insoluble”.

As to `CCn1cc(C(=O)O)c(=O)c2cc(F)c(N3CCNCC3)cc21` [Nf, norfloxacin], the “Decomposition Temperature” value in data set [1] was 206.1 (222.0) °C. Besides, the solubility in “physchem” was 11000 µg/mL and 34400 µM. Moreover, the IC50 in the data set on M. avium 2447 SmT is 7.93 µM. The CC50 at 5 days in data set [2] was more than 100 µM. Moreover, the “Net Charge” value in data set [3] is on record as −1.

As for `CC1COc2c(N3CCN(C)CC3)c(F)cc3c(=O)c(C(=O)O)cn1c23` (centres unmarked) [Of, ofloxacin], the “Decomposition Temperature” value in data set [1] is 274.8 (318.8) °C. The IC50 in the data set with M. avium 2447 SmT was 3.85 µM. Further, the CC50 at 5 days in data set [2] was more than 100 µM. In addition, the “Net Charge” value in data set [3] is reported as −1.

Broadly, the solubility is the concentration that dissolves in the medium under given conditions. Broadly, the IC50 is the concentration at which inhibition is half-maximal.
